Read-outs that look alike come from different tables or passages of the source.
Key:
[1] = test system: Mycoplasma gallisepticum (MG) S6; assay: In vitro sensitivity test (liquid dilution method); assay type: cell-based; conditions: 37°C, 7 days
Experimental: (§1) Survey of the sensitivity of the compound (I) to various strains of microorganisms was performed by a liquid dilution method […] an agar dilution method, in which the bacteria used were of animal origin and included the following strains (15 strains out of 11 bacteria): Chicken-origin strain: Mycoplasma gallisepticum (MG), Mycoplasma synoviae (MS), Hemophilus paragallinarum (H.pg) and Escherichia coli (E.coli); Pig-origin strain: Mycoplasma hyopneumoniae (Mh), Hemophilus pleuropneumonia (H.pp) and Bordetella bronchiseptica (B.br); Fish-origin strain: Pasteurella piscicida (P.pis) and Streptococcus sp (Str.sp); others: Escherichia coli (E. coli), Salmonella typhimurium (S.typhi) and Staphylococcus aureus (S.au).
(§2) Of these bacteria, the strains belonging to MG, MS and Mh were cultured at 37°C for 7 days by a liquid dilution method, of which the culture medium comprised: 12 % horse-serum added "PPLO" (agar manufactured by Difco) medium for MG; 12 % pig-serum, 0.01 % βNAD (nicotinamide adenine dinucleotide) added Frey medium for MS; 0.5 % lactoalbumin added Hank's solution, 10 % horse-serum, 0.5 % yeast extract (25 %) for Mh, and the agar dilution method was applied to the strains belonging to H.pg, H.pp, S.typhi, E.coli, S.au and B.br. Specifically, the H.pg strain was cultured in a 5 % chicken-serum added chicken bouillon medium and the H.pp strain was cultured in a heart infusion agar added with 10 % sheep defibered blood and 0.05 % βNAD. In case of the H.pg and P.pp strains, observation was made after cultivation at 37°C for 20 hours under 10 % CO₂. Mueller Hinton agar (Difco) was used for the strains belonging to S.typhi, E.coli, S.au and B.br, and observation was made after cultivation at 37°C for 20 to 24 hours. P.pis and Str.sp, both being of fish-origin, were respectively cultured at 25°C for 40 to 48 hours in a 1.5 % NaCl added heart infusion agar and in a sensitive disk medium.

[2] = test system: Mycoplasma gallisepticum (MG) T-7-T, TS-resistant strain isolated from the field; assay: In vitro sensitivity test (liquid dilution method); assay type: cell-based; conditions: 37°C, 7 days
Experimental: as §1, §2

[3] = test system: Mycoplasma hyopneumoniae (Mh) ST-11; assay: In vitro sensitivity test (liquid dilution method); assay type: cell-based; conditions: 37°C, 7 days
Experimental: as §1, §2

[4] = test system: Bordetella bronchiseptica (B.br) ABU-1; assay: In vitro sensitivity test (agar dilution method); assay type: cell-based; conditions: 37°C, 20 to 24 hours
Experimental: as §1, §2

[5] = test system: Escherichia coli (E.coli) E-17, chicken-origin strain isolated from the field; assay: In vitro sensitivity test (agar dilution method); assay type: cell-based; conditions: 37°C, 20 to 24 hours
Experimental: as §1, §2

[6] = test system: Escherichia coli (E.coli) JC-2; assay: In vitro sensitivity test (agar dilution method); assay type: cell-based; conditions: 37°C, 20 to 24 hours
Experimental: as §1, §2

[7] = test system: Hemophilus paragallinarum (H.pg) 221; assay: In vitro sensitivity test (agar dilution method); assay type: cell-based
Experimental: as §1, §2

[8] = test system: Hemophilus paragallinarum (H.pg) S-1; assay: In vitro sensitivity test (agar dilution method); assay type: cell-based
Experimental: as §1, §2

[9] = test system: Hemophilus pleuropneumonia (H.pp) M-1; assay: In vitro sensitivity test (agar dilution method); assay type: cell-based; conditions: 37°C, 20 hours, 10 % CO₂
Experimental: as §1, §2

[10] = test system: Salmonella typhimurium (S.typhi) 13311; assay: In vitro sensitivity test (agar dilution method); assay type: cell-based; conditions: 37°C, 20 to 24 hours
Experimental: as §1, §2

[11] = test system: Staphylococcus aureus (S.au) 209P; assay: In vitro sensitivity test (agar dilution method); assay type: cell-based; conditions: 37°C, 20 to 24 hours
Experimental: as §1, §2

[12] = test system: Pasteurella piscicida (P.pis) No. 2; assay: In vitro sensitivity test; assay type: cell-based; conditions: 25°C, 40 to 48 hours
Experimental: as §1, §2

[13] = test system: Streptococcus sp (Str.sp) SNO6119; assay: In vitro sensitivity test; assay type: cell-based; conditions: 25°C, 40 to 48 hours
Experimental: as §1, §2

[14] = test system: TS-resistant strain of MG; assay type: in vivo, chicken; conditions: 10-days chicken, 3.0 x 10³ CFU/fowl; for Infectious index Left air sack + / Infectious index Left air sack ++ / Infectious index Left air sack +++ / Infectious index Left air sack - / Infectious index Right air sack + / Infectious index Right air sack ++ / Infectious index Right air sack +++ / Infectious index Right air sack -: count of fowl
[15] = agar dilution, 37°C, 20 hours, 10 % CO₂

Row | Structure (SMILES) | In vitro Sensitivity Test MG S6 [1] | In vitro Sensitivity Test MG T-7-T [2] | In vitro Sensitivity Test Mh ST-11 [3] | In vitro Sensitivity Test B.br ABU-1 [4] | In vitro Sensitivity Test E.coli E-17 [5] | In vitro Sensitivity Test E.coli JC-2 [6] | In vitro Sensitivity Test H.pp M-1 [9] | In vitro Sensitivity Test S.typhi 13311 [10] | In vitro Sensitivity Test S.au 209P [11] | In vitro Sensitivity Test P.pis No. 2 [12] | In vitro Sensitivity Test Str.sp SNO6119 [13] | Infectious index Left air sack + ([14]; oral 3.13 mg/kg) | Infectious index Left air sack ++ ([14]; oral 3.13 mg/kg) | Infectious index Left air sack +++ ([14]; oral 3.13 mg/kg) | Infectious index Left air sack - ([14]; oral 3.13 mg/kg) | Infectious index Right air sack + ([14]; oral 3.13 mg/kg) | Infectious index Right air sack ++ ([14]; oral 3.13 mg/kg) | Infectious index Right air sack +++ ([14]; oral 3.13 mg/kg) | Infectious index Right air sack - ([14]; oral 3.13 mg/kg) | Infectious index Left air sack + ([14]; oral 6.25 mg/kg) | also measured
1 | CN[C@@H]1CCC[C@H]2[C@@H]1CCN2c1c(F)cc2c(=O)c(C(=O)O)cn(C3CC3)c2c1F (relative stereo) [I-3] | 0.025 µg/mL | 0.05 µg/mL | 0.05 µg/mL | 6.25 µg/mL | 0.1 µg/ml | 0.1 µg/mL | 0.2 µg/mL | 0.1 µg/mL | 0.2 µg/mL | 1.56 µg/mL | 0.78 µg/mL | 0 | 1 | 0 | 4 | 0 | 3 | 0 | 2 | 0 | In vitro Sensitivity Test H.pg 221 [7]: 1.56 µg/mL; In vitro Sensitivity Test H.pg S-1 [8]: 1.56 µg/mL; Infectious index Left air sack ++ ([14]; oral 6.25 mg/kg): 0; Infectious index Left air sack +++ ([14]; oral 6.25 mg/kg): 0; Infectious index Left air sack - ([14]; oral 6.25 mg/kg): 5; Infectious index Right air sack + ([14]; oral 6.25 mg/kg): 2; Infectious index Right air sack ++ ([14]; oral 6.25 mg/kg): 3; Infectious index Right air sack +++ ([14]; oral 6.25 mg/kg): 0; Infectious index Right air sack - ([14]; oral 6.25 mg/kg): 0; Infectious index Left air sack + ([14]; oral 12.5 mg/kg): 1; Infectious index Left air sack ++ ([14]; oral 12.5 mg/kg): 0; Infectious index Left air sack +++ ([14]; oral 12.5 mg/kg): 0; Infectious index Left air sack - ([14]; oral 12.5 mg/kg): 4; Infectious index Right air sack + ([14]; oral 12.5 mg/kg): 2; Infectious index Right air sack ++ ([14]; oral 12.5 mg/kg): 1; Infectious index Right air sack +++ ([14]; oral 12.5 mg/kg): 0; Infectious index Right air sack - ([14]; oral 12.5 mg/kg): 2; Number of fowl having air sack lesions ([14]; oral 3.13 mg/kg): 3; Number of fowl having air sack lesions ([14]; oral 6.25 mg/kg): 5; Number of fowl having air sack lesions ([14]; oral 12.5 mg/kg): 3
2 | CN[C@H]1CCC[C@H]2CN(c3c(F)cc4c(=O)c(C(=O)O)cn(C5CC5)c4c3F)CC[C@H]21.Cl (relative stereo) [I-7, 1-cyclopropyl-6,8-difluoro-7-[(1R*,6R*,7S*)-7-methylamino-3-azabicyclo[4.4.0]decan-3-yl]-1,4-dihydro-4-oxo-3-quinolinecarboxylic acid hydrochloride] | 0.05 µg/mL | 0.2 µg/mL | 0.1 µg/mL | 6.25 µg/mL | 0.39 µg/ml | 0.39 µg/mL | 0.78 µg/mL | 0.2 µg/mL | 0.78 µg/mL | 6.25 µg/mL | 3.13 µg/mL | 0 | 0 | 0 | 5 | 0 | 3 | 1 | 1 | 1 | In vitro Sensitivity Test H.pg 221 [7, 15]: >3.13 µg/mL; In vitro Sensitivity Test H.pg S-1 [8, 15]: >3.13 µg/mL; Infectious index Left air sack ++ ([14]; oral 6.25 mg/kg): 0; Infectious index Left air sack +++ ([14]; oral 6.25 mg/kg): 0; Infectious index Left air sack - ([14]; oral 6.25 mg/kg): 5; Infectious index Right air sack + ([14]; oral 6.25 mg/kg): 1; Infectious index Right air sack ++ ([14]; oral 6.25 mg/kg): 3; Infectious index Right air sack +++ ([14]; oral 6.25 mg/kg): 1; Infectious index Right air sack - ([14]; oral 6.25 mg/kg): 0; Infectious index Left air sack + ([14]; oral 12.5 mg/kg): 0; Infectious index Left air sack ++ ([14]; oral 12.5 mg/kg): 0; Infectious index Left air sack +++ ([14]; oral 12.5 mg/kg): 0; Infectious index Left air sack - ([14]; oral 12.5 mg/kg): 5; Infectious index Right air sack + ([14]; oral 12.5 mg/kg): 2; Infectious index Right air sack ++ ([14]; oral 12.5 mg/kg): 1; Infectious index Right air sack +++ ([14]; oral 12.5 mg/kg): 2; Infectious index Right air sack - ([14]; oral 12.5 mg/kg): 0; Number of fowl having air sack lesions ([14]; oral 3.13 mg/kg): 4; Number of fowl having air sack lesions ([14]; oral 6.25 mg/kg): 5; Number of fowl having air sack lesions ([14]; oral 12.5 mg/kg): 5

Reference: patent EP0429304A2, “Pyridone-carboxylic acid derivatives and their use as veterinary medicines” (SHIONOGI SEIYAKU KABUSHIKI KAISHA trading under the name of …, priority 1989, dated 1991)
